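Protocol summary: plate cells (96-well), add compound at 5 concentrations, incubate 48 h, interpolate endpoints linearly. Here, GI50 denotes the concentration required for 50% inhibition of growth.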 The source made the active and inactive calls. Cut-off read from the data, not from the text of the source: active = GI50 up to about 1.1 µM and inactive = higher.
Legend:
Test in all cases: NCI-60 cell line screen, 48 h
OVCAR-5 = tested on: OVCAR-5
IGROV-1 = tested on: IGROV-1
HCC 2998 = tested on: HCC 2998
UACC-62 = tested on: UACC-62
MOLT-4 = tested on: MOLT-4
HOP-62 = tested on: HOP-62
NCI-H460 = tested on: NCI-H460
SF-268 = tested on: SF-268
SN12C = tested on: SN12C
SK-MEL-5 = tested on: SK-MEL-5
786-0 = tested on: 786-0
K562 = tested on: K562
RXF 393 = tested on: RXF 393
A498 = tested on: A498
Malme-3M = tested on: Malme-3M
DU-145 = tested on: DU-145
MCF7 = tested on: MCF7
Hs-578T = tested on: Hs-578T
T47D = tested on: T47D

Measured: GI50

CN(C)CCNC(=O)c1cccc2c1nc(-c1ccncc1)c1ccccc12
active: IGROV-1 1.02 µM | MOLT-4 0.0316 µM | NCI-H460 0.0408 µM
inactive: OVCAR-5 4.88 µM | HCC 2998 2.6 µM | UACC-62 1.88 µM | HOP-62 3.78 µM | SF-268 5.53 µM | SN12C 1.58 µM | SK-MEL-5 1.81 µM | 786-0 3.66 µM | K562 3.14 µM | RXF 393 2.3 µM | A498 1.15 µM

CCCN(CCC)C(=S)N/N=C/c1cccc(C)n1
active: OVCAR-5 < 0.01 µM | Malme-3M 0.697 µM | DU-145 0.321 µM | IGROV-1 0.0733 µM | UACC-62 0.303 µM | MOLT-4 < 0.01 µM | MCF7 < 0.01 µM | HOP-62 0.195 µM | NCI-H460 0.159 µM | SF-268 0.023 µM | SN12C 0.122 µM | SK-MEL-5 0.129 µM | 786-0 0.0237 µM | K562 < 0.01 µM | RXF 393 0.151 µM | A498 0.233 µM
inactive: Hs-578T 2.16 µM

CCCCOC(=O)C(=O)C(CC(C(=O)Cc1ccccc1)c1ccccc1)C(=O)C=C(C)C (stereo unspecified)
inactive: OVCAR-5 > 100 µM | DU-145 > 100 µM | IGROV-1 > 100 µM | HCC 2998 > 100 µM | UACC-62 > 100 µM | MOLT-4 83.9 µM | MCF7 > 100 µM | HOP-62 > 100 µM | NCI-H460 > 100 µM | SF-268 > 100 µM | SN12C > 100 µM | SK-MEL-5 > 100 µM | Hs-578T > 100 µM | 786-0 > 100 µM | RXF 393 > 100 µM

COc1ccccc1/C=C1/Sc2scc(CC(=O)Nc3ccccc3)[n+]2C1=O
inactive: OVCAR-5 47 µM | DU-145 27.7 µM | IGROV-1 38 µM | HCC 2998 30.8 µM | UACC-62 14.4 µM | MOLT-4 17.2 µM | MCF7 31.4 µM | HOP-62 34 µM | NCI-H460 29.5 µM | SF-268 47.6 µM | SN12C 31.3 µM | SK-MEL-5 16 µM | Hs-578T 40.6 µM | 786-0 28.6 µM | RXF 393 22.6 µM

CC(=O)N1C=Cc2c(c(C)c3c([nH]c4ccccc43)c2C)C1
inactive: OVCAR-5 9.25 µM | Malme-3M 7.53 µM | DU-145 11.5 µM | IGROV-1 3.76 µM | MOLT-4 13.1 µM | MCF7 2.72 µM | HOP-62 3.02 µM | NCI-H460 1.23 µM | SF-268 7.4 µM | SN12C 3.8 µM | SK-MEL-5 13.8 µM | Hs-578T 3.62 µM | 786-0 2.41 µM | K562 > 100 µM | RXF 393 16.3 µM | A498 14.8 µM

O=C1/C(=N/c2ccc(Nc3ccccc3)cc2)Oc2ccccc21
inactive: OVCAR-5 2.54 µM | Malme-3M 2.99 µM | DU-145 8.47 µM | IGROV-1 3.06 µM | HCC 2998 8.26 µM | UACC-62 3.28 µM | MOLT-4 2.13 µM | MCF7 2.55 µM | HOP-62 5.57 µM | NCI-H460 5.31 µM | SF-268 2.88 µM | SN12C 2.02 µM | SK-MEL-5 4.68 µM | 786-0 1.88 µM | K562 2.93 µM | T47D 3 µM | RXF 393 2.51 µM | A498 5.69 µM

CCOC(=O)/C=C(/C(=O)OCC)n1cc(C)c(=O)n(Cc2cn(CCCCOC(C)=O)nn2)c1=O
inactive: OVCAR-5 18.1 µM | DU-145 34.4 µM | IGROV-1 15.2 µM | HCC 2998 18.3 µM | UACC-62 14.7 µM | MOLT-4 5.05 µM | MCF7 6.3 µM | HOP-62 33.6 µM | NCI-H460 10.7 µM | SF-268 17.1 µM | SN12C 23.6 µM | SK-MEL-5 25.6 µM | Hs-578T 23.2 µM | 786-0 6.49 µM | K562 4.14 µM | T47D 9.46 µM | RXF 393 17.6 µM

C/C(=N/NC(=S)N(C)C)c1ccccc1O
inactive: OVCAR-5 17.4 µM | Malme-3M 7.26 µM | DU-145 18.9 µM | IGROV-1 5.98 µM | HCC 2998 18.7 µM | UACC-62 6.46 µM | MOLT-4 20.5 µM | HOP-62 5.81 µM | NCI-H460 2.26 µM | SF-268 6.07 µM | SN12C 14.4 µM | SK-MEL-5 7.67 µM | Hs-578T > 72.4 µM | 786-0 6.32 µM | K562 19.1 µM | T47D 14.5 µM | RXF 393 23 µM | A498 36.1 µM

CC1(C)C(OC(=O)c2ccccc2)C[C@]23CCC[C@](C)(C[C@@H](O)C12)C3 (stereo partly specified)
inactive: OVCAR-5 15.3 µM | Malme-3M 19.2 µM | DU-145 21.2 µM | IGROV-1 20.2 µM | UACC-62 15.2 µM | MOLT-4 10.5 µM | MCF7 16.4 µM | HOP-62 24 µM | NCI-H460 16.2 µM | SF-268 24.1 µM | SN12C 18.4 µM | SK-MEL-5 13.1 µM | Hs-578T 19 µM | 786-0 19.6 µM | K562 13.5 µM | T47D 19.9 µM

N=C(N)N/N=C\c1c(-c2ccccc2)nc2sccn12
inactive: OVCAR-5 16.9 µM | Malme-3M 16.3 µM | DU-145 19 µM | IGROV-1 13.6 µM | HCC 2998 4.54 µM | UACC-62 15.9 µM | MOLT-4 18.5 µM | HOP-62 15.7 µM | NCI-H460 16.2 µM | SF-268 16.4 µM | SN12C 15.4 µM | SK-MEL-5 15.6 µM | Hs-578T 14 µM | 786-0 14.1 µM | K562 17.3 µM | T47D 14.3 µM | RXF 393 13.4 µM | A498 19.5 µM

Cc1ccc(/N=N/N(C)C(=O)C(C)N)cc1 (stereo unspecified)
inactive: OVCAR-5 > 100 µM | Malme-3M > 100 µM | DU-145 > 100 µM | IGROV-1 > 100 µM | HCC 2998 > 100 µM | UACC-62 > 100 µM | MOLT-4 > 100 µM | MCF7 > 100 µM | HOP-62 > 100 µM | NCI-H460 > 100 µM | SF-268 > 100 µM | SN12C > 100 µM | SK-MEL-5 > 100 µM | 786-0 > 100 µM | K562 > 100 µM | T47D > 100 µM | RXF 393 > 100 µM

CC1(C)CC2(C)CC1CC2O (stereo unspecified)
inactive: OVCAR-5 > 100 µM | Malme-3M > 100 µM | DU-145 > 100 µM | IGROV-1 > 100 µM | HCC 2998 > 100 µM | UACC-62 > 100 µM | MOLT-4 > 100 µM | MCF7 > 100 µM | HOP-62 > 100 µM | SF-268 > 100 µM | SN12C > 100 µM | SK-MEL-5 > 100 µM | Hs-578T > 100 µM | 786-0 > 100 µM | K562 > 100 µM | RXF 393 > 100 µM

O=C(c1ccc(Cl)cc1Cl)N(C(=O)N1CCC(c2ccccc2)CC1)c1ccccc1
inactive: OVCAR-5 > 100 µM | DU-145 > 100 µM | IGROV-1 92.9 µM | HCC 2998 > 100 µM | UACC-62 79.4 µM | MOLT-4 17.8 µM | MCF7 72.4 µM | HOP-62 > 100 µM | NCI-H460 > 100 µM | SN12C > 100 µM | SK-MEL-5 37.3 µM | 786-0 > 100 µM | K562 34.4 µM | T47D 53.7 µM | A498 97.7 µM

N#CSC#Cc1ccc(C#CSC#N)cc1
inactive: OVCAR-5 19.2 µM | Malme-3M 19.1 µM | DU-145 15.1 µM | IGROV-1 15.5 µM | HCC 2998 17.6 µM | UACC-62 18.1 µM | MOLT-4 36.2 µM | MCF7 19.9 µM | HOP-62 23 µM | NCI-H460 19.9 µM | SF-268 21.5 µM | SN12C 18 µM | SK-MEL-5 18.2 µM | Hs-578T 15.7 µM | 786-0 17.2 µM | K562 39.1 µM | RXF 393 18.7 µM | A498 20.2 µM

O=C(CN(C(=O)OC12CC3CC(CC(C3)C1)C2)C(=O)OC12CC3CC(CC(C3)C1)C2)Oc1ccc([N+](=O)[O-])cc1
inactive: OVCAR-5 > 100 µM | Malme-3M 75 µM | IGROV-1 > 100 µM | HCC 2998 > 100 µM | UACC-62 > 100 µM | MOLT-4 4.2 µM | MCF7 > 100 µM | HOP-62 > 100 µM | NCI-H460 > 100 µM | SF-268 > 100 µM | SN12C 86.3 µM | SK-MEL-5 87.5 µM | Hs-578T > 100 µM | 786-0 > 100 µM | K562 58.1 µM | RXF 393 42 µM

O=c1o[nH]/c(=N/c2ccccc2)n1-c1ccccc1
inactive: OVCAR-5 > 100 µM | Malme-3M > 100 µM | IGROV-1 > 100 µM | HCC 2998 93.3 µM | UACC-62 > 100 µM | MOLT-4 > 100 µM | MCF7 > 100 µM | HOP-62 > 100 µM | NCI-H460 > 100 µM | SN12C > 100 µM | SK-MEL-5 > 100 µM | Hs-578T > 100 µM | 786-0 > 100 µM | K562 > 100 µM | RXF 393 > 100 µM | A498 > 100 µM

O=C(O)CNC(=O)c1ccc2cc(C(=O)N3CC(CCl)c4ccc([N+](=O)[O-])cc43)[nH]c2c1 (stereo unspecified)
inactive: OVCAR-5 > 100 µM | DU-145 > 100 µM | IGROV-1 > 100 µM | UACC-62 > 100 µM | MOLT-4 > 100 µM | MCF7 > 100 µM | NCI-H460 > 100 µM | SF-268 > 100 µM | SN12C > 100 µM | SK-MEL-5 > 100 µM | Hs-578T > 100 µM | 786-0 > 100 µM | T47D > 100 µM | RXF 393 > 100 µM

Reference: ChEMBL document CHEMBL1201862, “PubChem BioAssay data set” (2004)
